Measured values taken from PMC8070033, “Bimetallic Iron–Palladium Catalyst System as a Lewis-Acid for the Synthesis of Novel Pharmacophores Based Indole Scaffold as Anticancer Agents” (Molecules, 2021).
In brackets after ≈: the same amount, converted by molar mass.

Columns and labels:
[1] = system: PC3 cells (Prostate Cancer); experiment: PC3 cells (Prostate Cancer) MTT assay; assay type: cell-based; conditions: for IC50: MTT assay, 48 hrs, ± SD from three independent experiments, NA: did not show anticancer activity at 30 µM
Method: (§1) Cytotoxicity against BJ Human fibroblast cells, and anti-cancer activity against PC3, HeLa and MCF-7 cancer cell lines were evaluated by following the procedure as described in the literature (Supplementary Materials).
The Biological Activity Assays Protocols
A. PC3 cells (Prostate Cancer) assay […]
For this purpose, PC3 cells (Prostate Cancer) were cultured in Dulbecco’s Modified Eagle Medium, supplemented with 5% of fetal bovine serum (FBS), 100 IU/ml of penicillin and 100 µg/ml of streptomycin in 75 cm2 flasks, and kept in 5% CO2 incubator at 37 °C. Exponentially growing cells were harvested, counted with haemocytometer and diluted with a particular medium. Cell culture with the concentration of 1x10^5 cells/ml was prepared and introduced (100 µL/well) into 96-well plates. After overnight incubation, medium was removed and 200 µL of fresh medium was added with different concentrations of compounds (1-30µM). After 48 hrs, 200 µL MTT (0.5 mg/ml) was added to each well and incubated further for 4 hrs. Subsequently, 100µL of DMSO was added to each well. The extent of MTT reduction to formazan within cells was calculated by measuring the absorbance at 570 nm, using a micro plate reader (Spectra Max plus, Molecular Devices, CA, USA). The cytotoxicity was recorded as concentration causing 50% growth inhibition (IC50) for PC3 cells. The percent inhibition was calculated by using the following formula: […]
(§2) of positive control – mean of O.D of negative control)*100).
(§3) The results (% inhibition) were processed by using Soft- Max Pro software (Molecular Device, USA).
Standard drug used in the MTT assay was doxorubicin.
(§4) 1. Mosmann T. Rapid colorimetric assay for cellular growth and survival: application to proliferation and cytotoxicity assays. J Immunol Meth 1983, 65, 55–63. […]

[2] = system: MCF-7 breast cancer cell line; experiment: MCF-7 breast cancer cell line MTT assay; assay type: cell-based; conditions: for IC50: MTT assay, 48 hours, ± SD from three independent experiments, NA: did not show anticancer activity at 30 µM
Method: (§5) Cytotoxicity against BJ Human fibroblast cells, and anti-cancer activity against PC3, HeLa and MCF-7 cancer cell lines were evaluated by following the procedure as described in the literature (Supplementary Materials). […]
(§6) of positive control – mean of O.D of negative control)*100). […]
(§7) Following concentrations were used to calculate (in case) of IC50:
(§8) Standard drug used in the MTT assay was doxorubicin. […]
D. MCF-7 breast cancer cell line assay.
MTT assay is a rapid and quantitative assay capable of measuring the surviving or proliferating cells.
It is based on the reduction of tetrazolium salt MTT (3-(4,5-dimethylthiazol-yl)-2,5-diphenyl tetrazolium bromide) by various dehydrogenase enzymes present in living cells. The tetrazolium ring present in MTT is cleaved in active mitochondria, which results in production of purple colored formazan crystals. These crystals are dissolved in DMSO and optical density of the color produced is taken by spectrophotometer (ELISA reader), with high efficiency and accuracy.
This assay was optimized and slightly modified according to our cell lines, i.e. MCF-7 breast cancer cell […]
1. MCF-7 cell line were cultured in Dulbecco’s modified Eagle medium (containing 10% fetal bovine serum) in 75 cc flasks, and kept in 5% CO 2 incubator at 37 °C.
2. Upon confluency, cells were harvested and plated in 96-well tissue culture treated flat bottom plates (seeding density 8,000 cells/well for MCF-7) in 100 µL medium.
3. Next day, compounds were added in triplicate at 50 µM concentration, and incubated for 48 hours. For natural extracts, the concentration was 50 µg/mL.
4. After 48 hrs incubation, the compounds were removed and 200 µL MTT at 0.5 mg/mL was added to each well and incubated at 37 °C for 3 hours.
5. Formazan crystals, formed by reduction of MTT were dissolved in 100 µL DMSO and absorbance was taken at 570 nm using micro-plate reader (Spectra Max plus, Molecular […]
6. The percent inhibition or decrease in viable cells was calculated by following formula:
% Inhibition = 100 - (mean of O.D. of test compound - mean of O.D. of negative control) / (mean of O.D. of positive control - mean of O.D. of negative control) x 100) […]
Twenty (20) mM stock concentration of compounds were diluted to working concentration of 50 µM, and then further serial dilutions were made in order to get less than 50% inhibition.
The IC50 was then calculated by using EZ-fit5 software.

[3] = system: HeLa cells (Cervical Cancer); experiment: HeLa cells (Cervical Cancer) MTT assay; assay type: cell-based; conditions: Homo sapiens, HeLa, 48 h, ± SD from three independent experiments, NA: did not show anticancer activity at 30 µM
Method: as §5, §2, §3, §7, §8
C. HeLa cells (Cervical Cancer) assay
Cytotoxic activity of compounds was evaluated in 96-well flat-bottomed micro plates by using the standard MTT (3-[4, 5-dimethylthiazole-2-yl]-2, 5-diphenyl-tetrazolium bromide) colorimetric assay40.
For this purpose, HeLa cells (Cervical Cancer) were cultured in Minimum Essential Medium Eagle, supplemented with 5% of fetal bovine serum (FBS) , 100 IU/ml of penicillin and 100 µg/ml of streptomycin in 75 cm2 flasks, and kept in 5% CO2 incubator at 37 °C. Exponentially growing cells were harvested, counted with haemocytometer and diluted with a particular medium. Cell culture with the concentration of 6x10^4 cells/ml was prepared and introduced (100 µL/well) into 96 -well plates. After overnight incubation, medium was removed and 200 µL of fresh medium was added with different concentrations of compounds (1-30µM). After 48 hrs, 200 µL MTT (0.5 mg/ml) was added to each well and incubated further for 4 hrs. Subsequently, 100µL of DMSO was added to each well. The extent of MTT reduction to formazan within cells was calculated by measuring the absorbance at 570 nm, using a micro plate reader (Spectra Max plus, Molecular Devices, CA, USA). The cytotoxicity was recorded as concentration causing 50% growth inhibition (IC 50) for HeLa. The percent inhibition was calculated by using the following formula: […]
The results (% inhibition) were processed by using Soft - Max Pro software (Molecular Device, USA).
as §4

Human fibroblast BJ = experiment: Cytotoxicity MTT assay, BJ human fibroblast cells; assay type: cell-based; conditions: 48 hrs, ± SD from three independent experiments, NA: did not show activity at 30 µM
Method: as §1
The Biological Activity Assays Protocols […]
as §6, §8
B. Cytotoxicity assay Protocol (BJ Human fibroblast cells) […]
standard MTT (3-[4, 5-dimethylthiazole-2-yl]-2, 5-diphenyl-tetrazolium bromide) colorimetric assay (Price & J. McMillan1, 1990). For this purpose, BJ Human fibroblast cells were cultured in Dulbecco’s Modified Eagle Medium, supplemented with 10% of fetal bovine serum (FBS), 100 IU/ml of penicillin and 100 µg/ml of streptomycin and 2 mM L‐glutamine in 75 cm2 flasks, and kept in 5% CO2 incubator at 37 °C (Mannerström, Toimela, Sarkanen & Heinonen, 2017).
Exponentially growing cells were harvested, counted with haemocytometer and diluted with a particular medium. Cell culture with the concentration of 6x10^4cells/ml was prepared and introduced (100 µL/well) into 96-well plates. After overnight incubation, medium was removed and 200 µL of fresh medium was added with different concentrations of compounds (1 -30µM). After 48 hrs, 200 µL MTT (0.5 mg/ml) was added to each well and incubated further for 3 hrs.
Subsequently, 100µL of DMSO was added to each well. The extent of MTT reduction to formazan within cells was calculated by measuring the absorbance at 550 nm, using a micro plate reader (Spectra Max plus, Molecular Devices, CA, USA). The cytotoxicity was recorded as concentra tion causing 50% growth inhibition (IC50) for BJ cells. The percent inhibition was calculated by using the following […]
Following concentrations were used to calculate (in case) of IC50: […]

MDAMB (human mammary) = system: MDAMB (human mammary); set-up: method as in PMID 8597898, doi:10.1016/j.tet.2007.05.127, doi:10.1021/jo00248a040; conditions: cited from earlier work
P-388 cell lines = system: P-388 cell lines; set-up: method as in PMID 8597898, doi:10.1016/j.tet.2007.05.127, doi:10.1021/jo00248a040; conditions: cited from earlier work
A-549 (human lung) = system: A-549 (human lung); set-up: method as in PMID 8597898, doi:10.1016/j.tet.2007.05.127, doi:10.1021/jo00248a040; conditions: cited from earlier work
HCT-8 (human colon) = system: HCT-8 (human colon); set-up: method as in PMID 8597898, doi:10.1016/j.tet.2007.05.127, doi:10.1021/jo00248a040; conditions: cited from earlier work

SMILES	IC50 ([1]; Homo sapiens, PC-3, 48 h)	anticancer activity against MCF-7 breast cancer cell line (in words) ([2]; in comparison to doxorubicin)	melting point	IC50 [3]	IC50 ([2]; Homo sapiens, MCF7, 48 h)	IC50 [2]	IC50 (Human fibroblast BJ)	IC50 [1]	anticancer activity against PC3 prostate cancer cell line (in words) ([1]; in comparison to doxorubicin)	IC50 against MDAMB (human mammary) cancer cell line (MDAMB (human mammary))	IC50, anti-tumor activity against P-388 cell lines (P-388 cell lines)	IC50 against A-549 (human lung) cancer cell line (A-549 (human lung))	IC50 against HCT-8 (human colon) cancer cell line (HCT-8 (human colon))
O=C(CC(c1cc2ccccc2o1)c1c[nH]c2ccccc12)c1ccccc1 (stereo not drawn) [Compound 3a, 3-(Benzofuran-2-yl)-3-(1H-indol-3-yl)-1-phenylpropan-1-one]	11.4 ± 0.2 µM	inactive	114 to 115 °C	22.5 ± 0.9 µM	–	–	–	–	–	–	–	–	–
O=C(CC(c1cc2ccccc2o1)c1c[nH]c2ccccc12)c1ccc(F)cc1 (stereo not drawn) [Compound 3b, 3-(Benzofuran-2-yl)-1-(4-fluorophenyl)-3-(1H-indol-3-yl)propan-1-one]	22.2 ± 0.5 µM	–	157 to 158 °C	8.2 ± 0.2 µM	12.3 ± 0.04 µM	12.37 ± 0.04 µM	> 30 µM	–	–	–	–	–	–
O=C(CC(c1cc2ccccc2o1)c1c[nH]c2ccc(Br)cc12)c1ccc(F)cc1 (stereo not drawn) [Compound 3c, 3-(Benzofuran-2-yl)-3-(5-bromo-1H-indol-3-yl)-1-(4-fluorophenyl)propan-1-one]	21.9 ± 1.5 µM	–	167 to 168 °C	10.8 ± 0.1 µM	25.9 ± 0.8 µM	–	> 30 µM	–	–	–	–	–	–
O=C(CC(c1cc2ccccc2o1)c1c[nH]c2ccccc12)c1ccc(Cl)cc1 (stereo not drawn) [Compound 3f, 3-(Benzofuran-2-yl)-1-(4-chlorophenyl)-3-(1H-indol-3-yl)propan-1-one]	16.3 ± 1.6 µM	–	126 to 127 °C	11.9 ± 0.2 µM	19.3 ± 0.78 µM	–	> 30 µM	27 ± 0.4 µM	–	–	–	–	–
COc1cccc(C(=O)CC(c2cc3ccccc3o2)c2c[nH]c3cc(F)ccc23)c1 (stereo not drawn) [Compound 3m, 3-(Benzofuran-2-yl)-3-(6-fluoro-1H-indol-3-yl)-1-(3-methoxyphenyl)propan-1-one]	19.3 ± 0.1 µM	–	154 to 155 °C	15.2 ± 0.2 µM	22.9 ± 0.43 µM	22.9 ± 0.43 µM	> 50 µM	–	–	–	–	–	–
COc1ccccc1C(=O)CC(c1cc2ccccc2o1)c1c[nH]c2ccc(Br)cc12 (stereo not drawn) [Compound 3s, 3-(Benzofuran-2-yl)-3-(5-bromo-1H-indol-3-yl)-1-(2-methoxyphenyl)propan-1-one]	29.7 ± 0.5 µM	–	60 to 61 °C	18.4 ± 0.2 µM	28.6 ± 0.33 µM	–	–	–	inactive	–	–	–	–
CN1CC(c2c[nH]c3c(Br)c(Br)cc(O)c23)NCC1c1c[nH]c2cc(Br)ccc12 (stereo not drawn) [dragmacidin]	–	–	–	–	–	–	–	–	–	1 to 10 mg/L	15 mg/L (≈ 25.7 µM)	1 to 10 mg/L	1 to 10 mg/L
